Where two headings read alike, the source gives them in different places.
Key:
[1] = system: Colletotrichum lindemuthianum; experiment: Example B: in vitro cell test, spore germination and mycelium growth in liquid culture; assay type: cell-based; conditions: 144 h, 20 ppm of tested compound, 6 days incubation, read-out: efficacy (inhibition of fungal growth)
Method: • Solvent: dimethyl sulfoxide Culture medium: 14.6 g anhydrous D-glucose (VWR), • 7.1 g mycological peptone (Oxoid), • 1.4 g granulated yeast extract (Merck), QSP 1 liter Inoculum: spore suspension The tested compounds were solubilized in dimethyl sulfoxide and the solution used to prepare the required range of concentrations. The final concentration of dimethyl sulfoxide used in the assay was ≤1%. A spore suspension of Colletotrichum lindemuthianum was prepared and diluted to the desired spore density. The compounds were evaluated for their ability to inhibit spore germination and mycelium growth in liquid culture assay. The compounds were added in the desired concentration to the culture medium with spores. After 6 days incubation, fungi-toxicity of compounds was determined by spectrometric measurement of mycelium growth. Inhibition of fungal growth was determined by comparing the absorbance values in wells containing the tested compounds with the absorbance in control wells without tested compounds.

[2] = system: Phakopsora pachyrhizi; experiment: Example F: in vivo preventive test (soybeans), DMSO/acetone/Tween 80; conditions: 288 h, 500 ppm of tested compound, preventive spray, soybean, evaluated 12 days after inoculation, read-out: efficacy
Method: Solvent: 5% by volume of dimethyl sulfoxide • 10% by volume of acetone
Emulsifier: 1 μL of Tween® 80 per mg of active ingredient
The tested compounds were made soluble and homogenized in a mixture of dimethyl sulfoxide/acetone/Tween® 80 and then diluted in water to the desired concentration.
The young plants of wheat were treated by spraying the tested compound prepared as described above. Control plants were treated only with an aqueous solution of acetone/dimethyl sulfoxide/Tween® 80.
After 24 hours, the plants were contaminated by spraying the leaves with an aqueous suspension of Phakospora pachyrhizi spores. The contaminated soybean plants were incubated for 24 hours at 24° C. and at 100% relative humidity and then for 11 days at 24° C. and at 70-80% relative humidity.
The test was evaluated 12 days after the inoculation. 0% means an efficacy which corresponds to that of the control plants while an efficacy of 100% means that no disease was observed.

[3] = system: Puccinia recondita; experiment: Example D: in vivo preventive test (brown rust on wheat); conditions: 264 h, 500 ppm of tested compound, preventive spray, evaluated 11 days after inoculation, read-out: efficacy
Method: Solvent: 5% by volume of dimethyl sulfoxide • 10% by volume of acetone Emulsifier: 1 μL of Tween® 80 per mg of active ingredient The tested compounds were made soluble and homogenized in a mixture of dimethyl sulfoxide/acetone/Tween® 80 and then diluted in water to the desired concentration. The young plants of wheat were treated by spraying the tested compound prepared as described above. Control plants were treated only with an aqueous solution of acetone/dimethyl sulfoxide/Tween® 80. After 24 hours, the plants were contaminated by spraying the leaves with an aqueous suspension of Puccinia recondita spores. The contaminated wheat plants were incubated for 24 hours at 20° C. and at 100% relative humidity and then for 10 days at 20° C. and at 70-80% relative humidity. The test was evaluated 11 days after the inoculation. 0% means an efficacy which corresponds to that of the control plants while an efficacy of 100% means that no disease was observed.

[4] = Log P by HPLC on reversed phase columns, method [a] (EEC directive 79/831 Annex V.A8); assay type: physicochemical; conditions: reversed phase HPLC column, read-out: logP
How it was run: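 Log P calibrated with C3–C16 straight-chain alkan-2-ones of known Log P, interpolating linearly between retention times. Method per EEC 79/831 Annex V.A8: reversed-phase LC-UV in the acidic range, water/0.1% formic acid and acetonitrile gradient from 10% to 95% acetonitrile.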

[5] = system: Alternaria brassicae; experiment: Example E: in vivo preventive test (cabbage); conditions: 144 h, 500 ppm of tested compound, preventive spray, evaluated 6 days after inoculation, read-out: efficacy
Method: Solvent: 5% by volume of dimethyl sulfoxide • 10% by volume of acetone Emulsifier: 1 μL of Tween® 80 per mg of active ingredient The tested compounds were made soluble and homogenized in a mixture of Dimethyl sulfoxide/Acetone/Tween® 80 and then diluted in water to the desired concentration. The young plants of cabbage were treated by spraying the tested compound prepared as described above. Control plants were treated only with an aqueous solution of Acetone/Dimethyl sulfoxide/Tween® 80. After 24 hours, the plants were contaminated by spraying the leaves with an aqueous suspension of Alternaria brassicae spores. The contaminated cabbage plants were incubated for 6 days at 20° C. and at 100% relative humidity. The test was evaluated 6 days after the inoculation. 0% means an efficacy which corresponds to that of the control plants while an efficacy of 100% means that no disease was observed.

[6] = log P determined according to method [a] (HPLC on reversed phase columns)
[7] = method [a], HPLC on reversed phase columns

| chromatographic logP [4, 6] | chromatographic logP [4, 7] | Structure (SMILES) | inhibition of growth at 20 µg/mL [1] [%] | pest or weed control at 500 µg/mL [2] [%] | pest or weed control at 500 µg/mL [3] [%] | pest or weed control at 500 µg/mL [5] [%] |
| --- | --- | --- | --- | --- | --- | --- |
| 2.86 | – | C#CC(Nc1ncc(-c2nnc(C(F)F)o2)cn1)c1ccccc1 (racemic) [I.118, 5-[5-(difluoromethyl)-1,3,4-oxadiazol-2-yl]-N-[(1RS)-1-phenylprop-2-yn-1-yl]pyrimidin-2-amine] | 90 to 100 | 90 to 100 | 80 to 89 | – |
| 3.16 | – | CCC(Nc1ncc(-c2nnc(C(F)F)o2)cn1)c1ccccc1 (racemic) [I.122, 5-[5-(difluoromethyl)-1,3,4-oxadiazol-2-yl]-N-[(1RS)-1-phenylpropyl]pyrimidin-2-amine] | 90 to 100 | 90 to 100 | 90 to 100 | – |
| 2.89 | – | CC(Nc1ncc(-c2nnc(C(F)F)o2)cn1)c1ccc(F)cc1 (racemic) [I.125, 5-[5-(difluoromethyl)-1,3,4-oxadiazol-2-yl]-N-[(1RS)-1-(4-fluorophenyl)ethyl]pyrimidin-2-amine] | 80 to 89 | 90 to 100 | 90 to 100 | – |
| 3.13 | – | CC(Oc1ncc(-c2nnc(C(F)F)o2)cn1)c1ccc(F)cc1 (racemic) [I.127, 5-[5-(difluoromethyl)-1,3,4-oxadiazol-2-yl]-2-{[(1RS)-1-(4-fluorophenyl)ethyl]oxy}pyrimidine] | – | 90 to 100 | 70 to 79 | – |
| 3.14 | – | FC(F)c1nnc(-c2cnc(NC(c3ccccc3)C3CC3)nc2)o1 (racemic) [I.136, N—[(RS)-cyclopropyl(phenyl)methyl]-5-[5-(difluoromethyl)-1,3,4-oxadiazol-2-yl]pyrimidin-2-amine] | 80 to 89 | 90 to 100 | 80 to 89 | – |
| 3.37 | – | CON(c1ncc(-c2nnc(C(F)F)o2)cn1)C(C)c1ccccc1 (racemic) [I.147, N-{5-[5-(difluoromethyl)-1,3,4-oxadiazol-2-yl]pyrimidin-2-yl}-O-methyl-N-[(1RS)-1-phenylethyl]hydroxylamine] | – | 80 to 89 | – | 90 to 100 |
| – | – | FC(F)c1nnc(-c2ccc(Nc3ncccn3)cc2)o1 [I.013, N-{4-[5-(difluoromethyl)-1,3,4-oxadiazol-2-yl]phenyl}pyrimidin-2-amine] | 90 to 100 | – | – | 90 to 100 |
| – | – | Fc1ccccc1Nc1ccc(-c2nnc(C(F)F)o2)cc1 [I.017, N-{4-[5-(difluoromethyl)-1,3,4-oxadiazol-2-yl]phenyl}-2-fluoroaniline] | 90 to 100 | – | – | 80 to 89 |
| – | – | CN(C(=O)c1ccc(-c2nnc(C(F)(F)F)o2)cc1)c1ccccc1 [I.026, N-methyl-N-phenyl-4-[5-(trifluoromethyl)-1,3,4-oxadiazol-2-yl]benzamide] | – | – | 80 to 89 | – |
| – | – | COCCNc1ncc(-c2nnc(C(F)F)o2)cn1 [I.068, 5-[5-(difluoromethyl)-1,3,4-oxadiazol-2-yl]-N-(2-methoxyethyl)pyrimidin-2-amine] | 90 to 100 | – | – | 70 to 79 |
| – | – | Fc1ccccc1Nc1ncc(-c2nnc(C(F)F)o2)cn1 [I.093, 5-[5-(difluoromethyl)-1,3,4-oxadiazol-2-yl]-N-(2-fluorophenyl)pyrimidin-2-amine] | – | 90 to 100 | 90 to 100 | – |
| – | – | Fc1cccc(Nc2ncc(-c3nnc(C(F)F)o3)cn2)c1 [I.094, 5-[5-(difluoromethyl)-1,3,4-oxadiazol-2-yl]-N-(3-fluorophenyl)pyrimidin-2-amine] | – | – | – | 90 to 100 |
| 1.73 | – | FC(F)c1nnc(-c2cnc(NCC3CCOCC3)nc2)o1 [I.105, 5-[5-(difluoromethyl)-1,3,4-oxadiazol-2-yl]-N-(tetrahydro-2H-pyran-4-ylmethyl)pyrimidin-2-amine] | – | – | – | 80 to 89 |
| 2.23 | – | CN(Nc1ncc(-c2nnc(C(F)F)o2)cn1)c1ccccc1 [I.108, 5-[5-(difluoromethyl)-1,3,4-oxadiazol-2-yl]-2-(2-methyl-2-phenylhydrazino)pyrimidine] | – | – | 70 to 79 | – |
| 2.23 | – | ON(Cc1ccccc1)c1ncc(-c2nnc(C(F)F)o2)cn1 [I.110, N-benzyl-5-[5-(difluoromethyl)-1,3,4-oxadiazol-2-yl]-N-hydroxypyrimidin-2-amine] | 90 to 100 | 90 to 100 | – | 90 to 100 |
| 2.95 | – | FC(F)c1nnc(-c2cnc(OC3(c4ccccc4)CC3)nc2)o1 [I.120, 5-[5-(difluoromethyl)-1,3,4-oxadiazol-2-yl]-2-[(1-phenylcyclopropyl)oxy]pyrimidine] | 70 to 79 | 90 to 100 | 70 to 79 | – |
| 0.93 | – | FC(F)c1nnc(-c2cnc(NC3(c4ccccn4)CC3)nc2)o1 [I.121, 5-[5-(difluoromethyl)-1,3,4-oxadiazol-2-yl]-N-[1-(pyridin-2-yl)cyclopropyl]pyrimidin-2-amine] | – | 90 to 100 | 70 to 79 | – |
| 3.26 | – | Fc1ccccc1Nc1ncc(-c2nnc(C(F)(F)Cl)o2)cn1 [I.131, 5-{5-[chloro(difluoro)methyl]-1,3,4-oxadiazol-2-yl}-N-(2-fluorophenyl)pyrimidin-2-amine] | 90 to 100 | – | – | 90 to 100 |
| 3.23 | – | Cc1ccccc1C1(Nc2ncc(-c3nnc(C(F)F)o3)cn2)CC1 [I.132, 5-[5-(difluoromethyl)-1,3,4-oxadiazol-2-yl]-N-[1-(2-methylphenyl)cyclopropyl]pyrimidin-2-amine] | 70 to 79 | 90 to 100 | 80 to 89 | – |
| 3.06 | – | COc1ccccc1C1(Nc2ncc(-c3nnc(C(F)F)o3)cn2)CC1 [I.155, 5-[5-(difluoromethyl)-1,3,4-oxadiazol-2-yl]-N-[1-(2-methoxyphenyl)cyclopropyl]pyrimidin-2-amine] | – | 90 to 100 | 80 to 89 | – |
| – | 3.74 | Fc1ccccc1C1(Nc2ncc(-c3nnc(C(F)F)o3)cn2)CCCC1 [I.171, 5-[5-(difluoromethyl)-1,3,4-oxadiazol-2-yl]-N-[1-(2-fluorophenyl)cyclopentyl]pyrimidin-2-amine] | 70 to 79 | 70 to 79 | – | 80 to 89 |
| – | 3.6 | Fc1cccc(C2(Nc3ncc(-c4nnc(C(F)F)o4)cn3)CCCC2)c1 [I.172, 5-[5-(difluoromethyl)-1,3,4-oxadiazol-2-yl]-N-[1-(3-fluorophenyl)cyclopentyl]pyrimidin-2-amine] | 70 to 79 | – | – | 80 to 89 |
| – | 2.51 | COC(=O)c1ccc(C2(Nc3ncc(-c4nnc(C(F)F)o4)cn3)CC2)cc1 [I.180, methyl 4-[1-({5-[5-(difluoromethyl)-1,3,4-oxadiazol-2-yl]pyrimidin-2-yl}amino)cyclopropyl]benzoate] | – | – | 70 to 79 | – |

Source: patent publication US20220144815A1, “1,3,4-OXADIAZOLES AND THEIR DERIVATIVES AS NEW ANTIFUNGAL AGENTS” (Bayer Aktiengesellschaft, priority 2018, published 2022)
